The subject of data set [1] is Sarcoma-180. Put plainly: Antineoplastic activity against mouse sarcoma 180 cells allografted in CD-1 mouse assessed as increase in survival rate at 80 mg/kg, qd administered for 6 days relative to control. Format: functional.
In data set [2] the test system is Sarcoma-180. As to the kind of experiment: Antineoplastic activity against mouse sarcoma 180 cells allografted in CD-1 mouse assessed as 50 day survivors at 80 mg/kg, qd administered for 6 days relative to control. Format: functional.
Data set [3] deals with Mus musculus. Put plainly: Toxicity in CD-1 mouse allografted with mouse sarcoma 180 cells assessed as change in body weight at 80 mg/kg, qd administered for 6 days measured during compound treatment (reference value: 30.2%). Type of data set: organism-based. Details: dose 80 mg/kg. Particulars: in vivo, 144 h.
In data set [4] the test system is Sarcoma-180. Put plainly: Antineoplastic activity against mouse sarcoma 180 cells allografted in CD-1 mouse assessed as increase in survival rate at 60 mg/kg, qd administered for 6 days relative to control. Type of data set: functional.
The subject of data set [5] is Mus musculus. Put plainly: Toxicity in CD-1 mouse allografted with mouse sarcoma 180 cells assessed as change in body weight at 60 mg/kg, qd administered for 6 days measured during compound treatment (reference value: 30.2%). Type of data set: organism-based. Also on record: dose 60 mg/kg. Particulars: in vivo, 144 h.
Data set [6] deals with Sarcoma-180. Put plainly: Antineoplastic activity against mouse sarcoma 180 cells allografted in CD-1 mouse assessed as 50 day survivors at 60 mg/kg, qd administered for 6 days relative to control. Format: functional.
Data set [7] has as its system Sarcoma-180. Put plainly: Antineoplastic activity against mouse sarcoma 180 cells allografted in CD-1 mouse assessed as 50 day survivors at 20 mg/kg, qd administered for 6 days relative to control. Type of data set: functional.
Data set [8] has as its system Mus musculus. Put plainly: Toxicity in CD-1 mouse allografted with mouse sarcoma 180 cells assessed as change in body weight at 20 mg/kg, qd administered for 6 days measured during compound treatment (reference value: 30.2%). Type of data set: organism-based. Details: dose 20 mg/kg. The settings on record: in vivo, 144 h.
Data set [9] concerns Sarcoma-180. Put plainly: Antineoplastic activity against mouse sarcoma 180 cells allografted in CD-1 mouse assessed as increase in survival rate at 20 mg/kg, qd administered for 6 days relative to control. Format: functional.
Data set [10] concerns Sarcoma-180. As to the kind of experiment: Antineoplastic activity against mouse sarcoma 180 cells allografted in CD-1 mouse assessed as increase in survival rate at 40 mg/kg, qd administered for 6 days relative to control. Type of data set: functional.
Data set [11] concerns Mus musculus. As to the kind of experiment: Toxicity in CD-1 mouse allografted with mouse sarcoma 180 cells assessed as change in body weight at 40 mg/kg, qd administered for 6 days measured during compound treatment (reference value: 30.2%). Format: organism-based. Details: dose 40 mg/kg. The settings on record: in vivo, 144 h.
For data set [12], the system named is Sarcoma-180. Put plainly: Antineoplastic activity against mouse sarcoma 180 cells allografted in CD-1 mouse assessed as 50 day survivors at 40 mg/kg, qd administered for 6 days relative to control. Format: functional.
For data set [13], the system named is L1210. As to the kind of experiment: Antineoplastic activity against mouse L1210 cells allografted in BDF1 mouse assessed as survival time at 80 mg/kg, qd administered for 6 days (reference value: 8.4 days). Format: functional.
Data set [14] concerns Mus musculus. As to the kind of experiment: Toxicity in BDF1 mouse allografted with mouse L1210 cells assessed as change in body weight at 80 mg/kg, qd administered for 6 days measured during compound treatment (reference value: 14.8%). Type of data set: organism-based. The settings on record: in vivo, 144 h. Also on record: dose 80 mg/kg.
Data set [15] has as its system Mus musculus. Put plainly: Toxicity in BDF1 mouse allografted with mouse L1210 cells assessed as change in body weight at 100 mg/kg, qd administered for 6 days measured during compound treatment (reference value: 14.8%). Format: organism-based. Details: dose 100 mg/kg. Particulars: in vivo, 144 h.
In data set [16] the test system is L1210. Put plainly: Antineoplastic activity against mouse L1210 cells allografted in BDF1 mouse assessed as survival time at 100 mg/kg, qd administered for 6 days (reference value: 8.4 days). Format: functional.
For data set [17], the system named is Mus musculus. As to the kind of experiment: Toxicity in BDF1 mouse allografted with mouse L1210 cells assessed as change in body weight at 60 mg/kg, qd administered for 6 days measured during compound treatment (reference value: 14.8%). The settings on record: in vivo, 144 h. Type of data set: organism-based. Details: dose 60 mg/kg.
Data set [18] has as its system L1210. As to the kind of experiment: Antineoplastic activity against mouse L1210 cells allografted in BDF1 mouse assessed as survival time at 60 mg/kg, qd administered for 6 days (reference value: 8.4 days). Format: functional.

Usually T/C stands for the ratio of treated to control. For `O=[N+]([O-])c1ccc(S(=O)(=O)N/N=C/c2cccc[n+]2[O-])cc1`, the T/C in data set [1] is 345%. Besides, the survival at 80 mg/kg in data set [2] was found to be 10%. Also, the Activity in data set [3] is -7.1%.
For the compound `C/C(=N\NS(=O)(=O)c1ccccc1)c1cccc[n+]1[O-]`, the T/C in data set [4] is 130%. For the same compound, in data set [5], the Activity is 23.5%. Further, in data set [6], the survival at 60 mg/kg was 0%.
Consider `O=S(=O)(N/N=C/c1cc(N2CCOCC2)cc[n+]1[O-])c1ccccc1`, for which the survival at 20 mg/kg in [7] is 0%. The Activity in data set [8] turned out to be 1.4%. Besides, in data set [9], the T/C worked out at 242%.
Take `O=S(=O)(N/N=C/c1cccc[n+]1[O-])c1ccc(Br)cc1`: the T/C in data set [10] is 240%. Also, the Activity in data set [11] is listed as -3.5%. The survival at 40 mg/kg in data set [12] came to 0%.
`Cc1ccc(S(=O)(=O)N/N=C/c2cccc[n+]2[O-])cc1`: the T/C in data set [4] stood at 307%. Also, the Survival in data set [13] was determined as 14.3 days. Further, the results for the Activity in [5] and in [14] were -8% and -7.4%, respectively. The survival at 60 mg/kg in data set [6] turned out to be 0%.
As to `O=S(=O)(N/N=C/c1cccc[n+]1[O-])c1cccc2ccccc12`, the T/C in data set [4] came to 261%. Also, in [5], the Activity is listed as -3.4%. For the same compound, the survival at 60 mg/kg in data set [6] came to 0%.
With `O=S(=O)(N/N=C/c1cccc[n+]1[O-])c1ccc(Cl)cc1`, the T/C in data set [10] came to 260%. Moreover, the Activity in [11] is recorded as -0.6%. Besides, in [12], the survival at 40 mg/kg came to 0%.
Regarding `Nc1ccc(S(=O)(=O)N/N=C/c2cccc[n+]2[O-])cc1`, in [4], the T/C is reported as 276%. Also, in data set [5], the Activity was 2.4%. Also, the survival at 60 mg/kg in [6] came to 0%.
Consider `O=S(=O)(N/N=C/c1cccc[n+]1[O-])c1ccc2c(c1)Cc1ccccc1-2`, for which the T/C in data set [10] is 276%. The Activity in data set [11] was -4.7%. Besides, the survival at 40 mg/kg in [12] came to 0%.
As for `O=S(=O)(N/N=C/c1cccc[n+]1[O-])c1ccc2ccccc2c1`, in data set [4], the T/C was 308%. For the same compound, in [5], the Activity is given as -1.2%. Besides, in data set [6], the survival at 60 mg/kg stood at 0%.
With `O=C(NNS(=O)(=O)c1ccccc1)c1cccc[n+]1[O-]`, the T/C in data set [10] amounted to 107%. The Activity in data set [11] worked out at 20.7%. The survival at 40 mg/kg in data set [12] is 0%.
As to `O=S(=O)(N/N=C/c1cccc[n+]1[O-])c1cccnc1`, in data set [4], the T/C came to 276%. Further, the Activity in [5] came to 0%. Also, in [6], the survival at 60 mg/kg is 0%.
`O=[N+]([O-])c1cc[n+]([O-])c(/C=N/NS(=O)(=O)c2ccccc2)c1`: the T/C in [4] amounted to 293%. Also, the Activity in [5] is reported as -5.4%. Besides, the survival at 60 mg/kg in data set [6] turned out to be 0%.
Consider `Cc1ccccc1S(=O)(=O)N/N=C/c1cccc[n+]1[O-]`, for which, in data set [4], the T/C is recorded as 285%. In addition, the Activity is reported as -1.9% in [5] and -11.1% in data set [15]. In addition, in data set [6], the survival at 60 mg/kg came to 0%. Further, the Survival in [16] was 19.9 days.
Regarding `Nc1cccc(S(=O)(=O)N/N=C/c2cccc[n+]2[O-])c1`, the T/C in data set [1] is recorded as 364%. In addition, in [2], the survival at 80 mg/kg came to 0%. Moreover, the Activity in data set [3] is recorded as -10.3%.
As to `COc1ccc(S(=O)(=O)N/N=C/c2cccc[n+]2[O-])cc1`, the T/C in data set [1] stood at 356%. For the same compound, in data set [2], the survival at 80 mg/kg worked out at 40%. The Survival in data set [13] was determined as 19.7 days. Besides, the Activity is listed as -11.6% in data set [3] and -4.9% in data set [14].
On to `O=S(=O)(N/N=C/c1cc(Cl)cc[n+]1[O-])c1ccccc1`, for which, in data set [7], the survival at 20 mg/kg turned out to be 0%. Moreover, the Activity in data set [8] was found to be 10.8%. In addition, the T/C in [9] is 156%.
As for `O=S(=O)(N/N=C/c1cccc[n+]1[O-])c1ccccc1`, in [10], the T/C was 339%. For the same compound, the Activity in [11] is recorded as -5.2%; in data set [14], -8%. Moreover, the Survival in data set [13] stood at 10.6 days. For the same compound, the survival at 40 mg/kg in data set [12] is 20%.
For `O=[N+]([O-])c1cccc(S(=O)(=O)N/N=C/c2cccc[n+]2[O-])c1`, in data set [4], the T/C is recorded as 390%. Moreover, in data set [13], the Survival is 12.4 days. Moreover, the Activity in data set [5] is given as -7.5%; in [14] it was -5.4%. For the same compound, in data set [6], the survival at 60 mg/kg came out at 60%.
Turning to `O=S(=O)(N/N=C/c1cccc[n+]1[O-])c1ccc(F)cc1`, the T/C in data set [4] stood at 337%. In addition, the figures for the Activity in data set [5] and in data set [17] were -5.7% and 1.6%, respectively. For the same compound, in data set [6], the survival at 60 mg/kg was 20%. Also, the Survival in data set [18] is 11.8 days.

The values above are taken from ChEMBL document CHEMBL3243951, “Relationship between structure and antineoplastic activity of arylsulfonylhydrazones of 2-formylprydine N-oxide” (J Med Chem, 1978).
